According to US20080280934A1, “Method of Preparing Porphyrin Derivatives, Porphyrin Derivatives, Uses Thereof and Pharmaceutical Compositions” (priority 2003, published 2008):

What was measured:
[1] = maximum absorption wavelength (λmax); format: physicochemical; conditions: for maximum absorption wavelength: in both dichloromethane and methanol; for λmax / absorption maximum: solvent not stated
Description: Refluxing of pure 4a in trichloroacetic acid at 175° C. leads surprising to a new peri-annulated quinoporphyrin-product (5a). The oxidizing agent performing the final oxidation (closing the heterocyclic ring of the quinoline-ring system) to result in the new product is oxygen from the air, similar to what is known for other reactions involving porphyrins (see Woodward, J., Am.. Chem. Soc.. (1960) […]., pp. 3800-3802). The λmax of this new compound 5a is, compared with mesoporphyrindimethylester 1, shifted towards the red (respective values for λmax are: 567 nm and 638 nm).
If desired the metal ion used (here nickel) may be removed in a conventional manner (5 min. conc. sulphuric acid at room temperature, the time required to dissolve completely), yielding the corresponding compounds 6a-6d. Noteworthy are the maximum absorption wavelengths for 6a, 6b, 6c and 6d which are 681, 688, 688 and 683 nm respectively (in both dichloromethane and methanol),which are very long for entirely unsaturated porphyrin ring systems. Benzylation of the quinoline-ring system nitrogen with benzyl bromide/ potassium iodide leads to formation of a cationic benzylated quinoporphyrin (18 N-benzylquinolinium[4,4a,5,6-efg]-annulated mesoporphyrin dimethylester with an absorption maximum at 755 nm. Hydrolysation of this compound yields N-benzylquinolinium[4,4a,5,6-efg]-annulated mesoporphyrin (19).

[2] = solubility of the purified porphyrin in demineralized water; format: physicochemical; conditions: at about pH 8, demineralized water
Description: A solution of 0.61 gram of 6a in 25 ml tetrahydrofuran (THF) was mixed with a solution of 0.20 gram sodium hydroxide in 120 ml of water and refluxed during 1 hour. The reaction was followed with silicagel thin layer chromatography using THF as the eluens. When the reaction is finished THF and water were removed by distillation under reduced pressure until the volume was approximately 20 ml. The crude product was purified over 10 grams of CM Sephadex cation exchanger (bead size 40-120 μm) from Sigma-Aldrich, which was first treated with 1 M hydrochloric acid and then washed with demineralized water. First the porphyrin solution was carried onto the sephadex gel, and washed with demineralized water to remove salts. The purified porphyrin was eluted with 1% ammoniumhydroxide in water. The resulting brown solution was evaporated to dryness, then demineralized water was added and again the solution was evaporated to dryness to remove traces of ammonia. […] Yet this solubility of about 0.5 mg/ml at about pH 8 is better than for other porphyrin compounds such as MTHPC which is currently used in photodynamic therapy. 0.45 grams (77%) of the dicarboxylic acid 7a was obtained.

Row | maximum absorption wavelength [1] [nm] | λmax / absorption maximum [1] [nm] | Substance | further results
1 | 688 |  | 2′-methoxycarbonylquino[4,4a,5,6-jkl]-annulated 12-demethyl-13-de[2-(methoxycarbonyl)ethyl]mesoporphyrin dimethylester [6b] | 
2 | 688 |  | 2′-methoxycarbonylquino[4,4a,5,6-qrs]-annulated 18-demethyl-17-de[2-(methoxycarbonyl)ethyl]mesoporphyrin dimethylester [6c] | 
3 |  | 755 | N-benzylquinolinium[4,4a,5,6-efg]-annulated mesoporphyrin dimethylester [compound 18] | 
4 |  | 567 | mesoporphyrin dimethylester [compound 1, reference compound] | 
5 | 683 |  | quino[4,4a,5,6-abt]-annulated 2-demethyl-3-deethylmesoporphyrin dimethylester [6d] | 
6 |  |  | quino[4,4a,5,6-efg]-annulated 7-demethyl-8-deethylmesoporphyrin [7a] | solubility [2]: about 0.5 mg/ml
7 | 681 |  | quino[4,4a,5,6-efg]-annulated 7-demethyl-8-deethylmesoporphyrin dimethylester [6a] | 
8 |  | 638 | quino[4,4a,5,6-efg]-annulated 7-demethyl-8-deethylmesoporphyrin dimethylester nickel (II) complex [5a] | 
